Holding throughout (format): physicochemical
A short description of data set [1]: Decomposition of doripenem on heating and dissolving an aqueous suspension in a batch manner. As to conditions: heating medium around 60° C., solution around 55° C., measured immediately after dissolution, 15.5 kg in 280 L water. The procedure:
An aqueous suspension of doripenem (aqueous suspension in which 15.5 kg of doripenem had been mixed with 280 L of water) was cooled to 10° C. or lower to suppress decomposition during waiting. This aqueous suspension was dissolved as it was using a heating medium at around 60° C. to obtain an aqueous solution of doripenem, at around 55° C. A decomposition degree of doripenem measured immediately after dissolution of doripenem was about 7%.

Data set [2] is described as follows: Decomposition of doripenem on heating and dissolving an aqueous suspension with a continuous heating and dissolving equipment. As to conditions: continuous heating; position of 28 m of the equipment; heating source around 60° C., about 6 L/min, solution around 55° C. at outlet; 15.5 kg in 280 L water. The procedure:
An aqueous suspension of doripenem (aqueous suspension in which 15.5 kg of doripenem had been mixed with 280 L of water) was cooled to 10° C. or lower to suppress decomposition during waiting. This aqueous suspension was passed through a continuous heating and dissolving equipment of an inner diameter of around 23 mm and a length of around 28 m, having a heating source at around 60° C. at about 6 L/min, and elevation in a temperature and dissolution were performed during passage through the machine to obtain an aqueous solution of doripenem at around 55° C. at an outlet of the dissolving machine. A decomposition degree of doripenem at a position of 28 m of the continuous heating and dissolving equipment was about 0.2%.

Data set [3] is described as follows: Decomposition of doripenem in an aqueous solution at 40, 50 or 60° C. As to conditions: aqueous solution at 40° C., 50° C., or 60° C. The protocol: Decomposition of doripenem in an aqueous solution of doripenem at 40° C., 50° C., or 60° C. was examined. […] FIG. 2, FIG. 3 and FIG. 4 show a doripenem decomposition curve at each temperature.

Here are results for one compound from US8093284B2, “Process for producing aqueous solution of doripenem” (Shionogi & Co., Ltd., priority 2005, dated 2012).

In the case of `C[C@@H](O)[C@H]1C(=O)N2C(C(=O)O)=C(S[C@@H]3CN[C@H](CNS(N)(=O)=O)C3)[C@H](C)[C@H]12` [doripenem], the “decomposition degree of doripenem” value in data set [1] is listed as “about 7%”; in data set [2], “about 0.2%”. For the same compound, the “decomposition of doripenem in aqueous solution” value in data set [3] is on record as “decomposed at these temperatures with time”.
